Experimental data as given in patent publication US9610285B2, “Compositions for controlling food intake and uses therefor” (UNIVERSITY OF FLORIDA RESEARCH FOUNDATION, INCORPORATED, priority 2011, dated 2017).
Marks after values point to notes of the source that are not given here.

Tests used:
Format in all cases: in vivo, rat
Male Sprague-Dawley rats [1] = test: Total caloric intake following drug injections in binge-eating rats (Example 2); conditions: for Effect on total caloric intake, in words: one-way ANOVA over saline, low and high dose
From the text: (§1) Male Sprague-Dawley rats, 250-300 g at the onset of the experiment, were obtained from Taconic Farms (Germantown, N.Y., USA). Rats were housed individually on a 12-h reversed light/dark cycle and given 1 wk to acclimate before diet training began.
(§2) The rats were divided into groups (n=10/group) matched for body weight and assigned to one of the following dietary conditions: (1) Binge Sugar, (2) Binge Fat or (3) Binge Sugar-Fat. All rats received palatable diets and standard rodent chow (LabDiet #5001, PMI Nutrition International, Richmond, Ind., USA; 10% fat, 20% protein, 70% carbohydrate, 3.02 kcal/g) for 12 h/day, starting 4 h after the onset of the dark cycle. Water was available ad libitum.
(§3) All palatable foods were mixed in the laboratory. The Binge Sugar group had access to a 10% (w/v) sucrose solution (Domino® Granulated Pure Cane Sugar, dissolved in tap water, 0.4 kcal/mL), the Binge Fat group had access to a 35% (w/v) fat emulsion (3.1 kcal/mL) and the Binge Sugar-Fat group had access to a 10% (w/v) sugar solution and 35% (w/v) fat emulsion (3.5 kcal/mL). Both emulsions were made with Wesson® Pure Vegetable Oil in tap water and 0.6% (w/v) Emplex, a commercially available emulsifier (American Ingredients Company, Kansas City, Mo., USA). Palatable food intakes were recorded daily. Chow intake was recorded weekly. Body weights were taken at the beginning and end of the 21-day diet period.
(§4) After 21 days on these diets, drug testing began. During testing, diet regimens were maintained. Approximately 3.5 h into the dark cycle, animals were weighed and intraperitoneal (i.p.) injections of drug were given (according to the schedule below). 30 min later (4 h into the dark cycle) palatable food and chow were made available to the rats. For the first 3 days, rats were acclimated to handling and daily vehicle injections (0.9% saline, Hospira, Lake Forest, Ill., USA, i.p. 1 mL/kg). For days 4-16 of drug testing, either vehicle or drug was alternatively administered, starting with drug on day 4. […] Intake of palatable food and chow was measured hourly after injection for 4 h and again at the end of the 12-h access period.
(§5) Palatable food and standard chow intakes following saline injections between days 4-16 were averaged. All data were analyzed using one-way ANOVAs with post hoc Multiple Comparisons, when appropriate. In Tables 4-7, values having the same letter superscript are statistically different from one another.

Male Sprague-Dawley rats [2] = test: Palatable food intake following drug injections in binge-eating rats (Example 2); conditions: for Effect on palatable food (fat) intake, in words / Effect on palatable food (sugar) intake, in words / Effect on palatable food (sugar-fat) intake, in words: one-way ANOVA over saline, low and high dose
From the text: as §1, §2, §3, §4, §5

Male Sprague-Dawley rats [3] = test: Standard chow intake following drug injections in binge-eating rats (Example 2); conditions: for Effect on standard chow intake, in words: one-way ANOVA over saline, low and high dose
From the text: as §1, §2, §3, §4, §5

rats = test: Binge eating rats, palatable food and chow intake (Example 1, FIGS. 1-5); conditions: drug alone, i.p., figure legends
Method: Baclofen (at 1.0 and 1.8 mg/kg, administered i.p.)
Baclofen+naltrexone (mixed low and mixed high)
1. Binge Sugar (10% sucrose solution, w/v)
2. Binge Fat (35% oil emulsion, w/v)
3. Binge Sugar/Fat (10% sucrose, 35% oil emulsion, w/v)
Groups of animals (rats) were maintained on their diets for 3 weeks to establish stable binge eating behavior. After this period of time, the rats were administered three days of daily i.p. injections of saline (to acclimate to the injection procedure), and sugar/chow intake was measured after the first hour of access and then hourly for the next 3 hours, as well as at the end of the 12-h access period. After this three-day period, rats were given baclofen+naloxone, and measurements taken as described above. Other dosage amounts of baclofen and naloxone were tested, as were the effects of these compounds alone (with measurements being performed as described above). Vehicle injections were performed between the various tests in order to allow for suitable clearance of compounds from the animals. […] Thus, the treatment appears ideally suited for food addicts, hedonic overeaters and changes food choice but not appetite.

[4] = Binge Fat group, 1 h, high dose (naltrexone 1.0 mg/kg, baclofen 1.8 mg/kg, or both, i.p.)
[5] = Binge Fat group, 1 h, low dose (naltrexone 0.1 mg/kg, baclofen 1.0 mg/kg, or both, i.p.)
[6] = Binge Fat group, 12 h, high dose (naltrexone 1.0 mg/kg, baclofen 1.8 mg/kg, or both, i.p.)
[7] = Binge Fat group, 12 h, low dose (naltrexone 0.1 mg/kg, baclofen 1.0 mg/kg, or both, i.p.)
[8] = Binge Sugar group, 1 h, high dose (naltrexone 1.0 mg/kg, baclofen 1.8 mg/kg, or both, i.p.)
[9] = Binge Sugar group, 1 h, low dose (naltrexone 0.1 mg/kg, baclofen 1.0 mg/kg, or both, i.p.)
[10] = Binge Sugar group, 12 h, high dose (naltrexone 1.0 mg/kg, baclofen 1.8 mg/kg, or both, i.p.)
[11] = Binge Sugar group, 12 h, low dose (naltrexone 0.1 mg/kg, baclofen 1.0 mg/kg, or both, i.p.)
[12] = Binge Sugar-Fat group, 1 h, high dose (naltrexone 1.0 mg/kg, baclofen 1.8 mg/kg, or both, i.p.)
[13] = Binge Sugar-Fat group, 1 h, low dose (naltrexone 0.1 mg/kg, baclofen 1.0 mg/kg, or both, i.p.)
[14] = Binge Sugar-Fat group, 12 h, high dose (naltrexone 1.0 mg/kg, baclofen 1.8 mg/kg, or both, i.p.)
[15] = Binge Sugar-Fat group, 12 h, low dose (naltrexone 0.1 mg/kg, baclofen 1.0 mg/kg, or both, i.p.)

Q: What does the source list for `NC[C@H](CC(=O)O)c1ccc(Cl)cc1` [Baclofen, R-baclofen]?
A: 1-H Total Caloric Intake (Kcal) (Male Sprague-Dawley rats [1]; [4]): 17.0 ± 3.0^e,f Kcal; 1-H Total Caloric Intake (Kcal) (Male Sprague-Dawley rats [1]; [5]): 30.1 ± 4.1^f Kcal; 12-H Total Caloric Intake (Kcal) (Male Sprague-Dawley rats [1]; [6]): 67.7 ± 9.9^g Kcal; 12-H Total Caloric Intake (Male Sprague-Dawley rats [1]; [7]): 88.6 ± 7.8 kcal; 1-H Total Caloric Intake (Male Sprague-Dawley rats [1]; [8]): 21.9 ± 4.4 kcal; 1-H Total Caloric Intake (Male Sprague-Dawley rats [1]; [9]): 26.7 ± 2.3 kcal; 12-H Total Caloric Intake (Male Sprague-Dawley rats [1]; [10]): 74.0 ± 6.3 kcal; 12-H Total Caloric Intake (Male Sprague-Dawley rats [1]; [11]): 84.8 ± 7.0 kcal; 1-H Total Caloric Intake (Kcal) (Male Sprague-Dawley rats [1]; [12]): 15.0 ± 2.6^k,m Kcal; 1-H Total Caloric Intake (Kcal) (Male Sprague-Dawley rats [1]; [13]): 34.8 ± 5.6^m Kcal; 12-H Total Caloric Intake (Male Sprague-Dawley rats [1]; [14]): 81.4 ± 7.3 kcal; 12-H Total Caloric Intake (Male Sprague-Dawley rats [1]; [15]): 89.5 ± 8.8 kcal; Effect on total caloric intake, in words (Male Sprague-Dawley rats [1]; Fat group, 1 h): significantly reduced; Effect on total caloric intake, in words (Male Sprague-Dawley rats [1]; Fat group, 12 h): significantly reduced; Effect on total caloric intake, in words (Male Sprague-Dawley rats [1]; Sugar group, 1 h): no effect; Effect on total caloric intake, in words (Male Sprague-Dawley rats [1]; Sugar group, 12 h): no effect; Effect on total caloric intake, in words (Male Sprague-Dawley rats [1]; Sugar-Fat group, 1 h): reduced; Effect on total caloric intake, in words (Male Sprague-Dawley rats [1]; Sugar-Fat group, 12 h): not apparent; 1-H Palatable Food Intake (Kcal) (Male Sprague-Dawley rats [2]; [4]): 6.5 ± 2.0^c,d Kcal; Palatable food intake as a percent of intake after saline injections, 1-H Intake (%) (Male Sprague-Dawley rats [2]; [4]): 38%; 1-H Palatable Food Intake (Kcal) (Male Sprague-Dawley rats [2]; [5]): 17.9 ± 2.4^d Kcal; Palatable food intake as a percent of intake after saline injections, 1-H Intake (%) (Male Sprague-Dawley rats [2]; [5]): 106%; Effect on palatable food (fat) intake, in words (Male Sprague-Dawley rats [2]; Binge Fat group, 1 h): decreased; 12-H Palatable Food Intake (Kcal) (Male Sprague-Dawley rats [2]; [6]): 32.6 ± 4.9^e,f Kcal; Palatable food intake as a percent of intake after saline injections, 12-H Intake (%) (Male Sprague-Dawley rats [2]; [6]): 56%; 12-H Palatable Food Intake (Kcal) (Male Sprague-Dawley rats [2]; [7]): 54.5 ± 4.5^f Kcal; Palatable food intake as a percent of intake after saline injections, 12-H Intake (%) (Male Sprague-Dawley rats [2]; [7]): 93%; Effect on palatable food (fat) intake, in words (Male Sprague-Dawley rats [2]; Binge Fat group, 12 h): decreased; 1-H Palatable Food Intake (Male Sprague-Dawley rats [2]; [8]): 2.7 ± 0.5 kcal; Palatable food intake as a percent of intake after saline injections, 1-H Intake (%) (Male Sprague-Dawley rats [2]; [8]): 96%; 1-H Palatable Food Intake (Male Sprague-Dawley rats [2]; [9]): 3.6 ± 0.8 kcal; Palatable food intake as a percent of intake after saline injections, 1-H Intake (%) (Male Sprague-Dawley rats [2]; [9]): 131%; Effect on palatable food (sugar) intake, in words (Male Sprague-Dawley rats [2]; Binge Sugar group, 1 h): no effect; 12-H Palatable Food Intake (Kcal) (Male Sprague-Dawley rats [2]; [10]): 11.4 ± 2.4^ Kcal; Palatable food intake as a percent of intake after saline injections, 12-H Intake (%) (Male Sprague-Dawley rats [2]; [10]): 90%; 12-H Palatable Food Intake (Male Sprague-Dawley rats [2]; [11]): 11.3 ± 2.5 kcal; Palatable food intake as a percent of intake after saline injections, 12-H Intake (%) (Male Sprague-Dawley rats [2]; [11]): 88%; Effect on palatable food (sugar) intake, in words (Male Sprague-Dawley rats [2]; Binge Sugar group, 12 h): no effect; 1-H Palatable Food Intake (Kcal) (Male Sprague-Dawley rats [2]; [12]): 8.6 ± 1.6^j,k Kcal; Palatable food intake as a percent of intake after saline injections, 1-H Intake (%) (Male Sprague-Dawley rats [2]; [12]): 37%; 1-H Palatable Food Intake (Kcal) (Male Sprague-Dawley rats [2]; [13]): 23.5 ± 3.9^j Kcal; Palatable food intake as a percent of intake after saline injections, 1-H Intake (%) (Male Sprague-Dawley rats [2]; [13]): 100%; Effect on palatable food (sugar-fat) intake, in words (Male Sprague-Dawley rats [2]; Binge Sugar-Fat group, 1 h): significantly decreased; 12-H Palatable Food Intake (Kcal) (Male Sprague-Dawley rats [2]; [14]): 57.4 ± 4.1^p Kcal; Palatable food intake as a percent of intake after saline injections, 12-H Intake (%) (Male Sprague-Dawley rats [2]; [14]): 75%; 12-H Palatable Food Intake (Male Sprague-Dawley rats [2]; [15]): 64.9 ± 6.6 kcal; Palatable food intake as a percent of intake after saline injections, 12-H Intake (%) (Male Sprague-Dawley rats [2]; [15]): 85%; Effect on palatable food (sugar-fat) intake, in words (Male Sprague-Dawley rats [2]; Binge Sugar-Fat group, 12 h): suppressed intake; 1-H Chow Intake (Male Sprague-Dawley rats [3]; [4]): 10.6 ± 1.0 kcal; 1-H Chow Intake (Male Sprague-Dawley rats [3]; [5]): 12.2 ± 1.7 kcal; 12-H Chow Intake (Male Sprague-Dawley rats [3]; [6]): 35.0 ± 5.0 kcal; 12-H Chow Intake (Male Sprague-Dawley rats [3]; [7]): 34.1 ± 3.3 kcal; 1-H Chow Intake (Male Sprague-Dawley rats [3]; [8]): 19.3 ± 3.4 kcal; 1-H Chow Intake (Male Sprague-Dawley rats [3]; [9]): 23.0 ± 1.5 kcal; 12-H Chow Intake (Male Sprague-Dawley rats [3]; [10]): 62.5 ± 3.8 kcal; 12-H Chow Intake (Kcal) (Male Sprague-Dawley rats [3]; [11]): 73.5 ± 4.5^c Kcal; 1-H Chow Intake (Kcal) (Male Sprague-Dawley rats [3]; [12]): 6.3 ± 1.0^i Kcal; 1-H Chow Intake (Kcal) (Male Sprague-Dawley rats [3]; [13]): 11.3 ± 1.7^i Kcal; Effect on standard chow intake, in words (Male Sprague-Dawley rats [3]; Binge Sugar-Fat group, 1 h): less chow intake at the high dose compared to the low dose; 12-H Chow Intake (Male Sprague-Dawley rats [3]; [14]): 24.1 ± 3.1 kcal; 12-H Chow Intake (Male Sprague-Dawley rats [3]; [15]): 24.6 ± 2.2 kcal; Effect on standard chow intake, in words (Male Sprague-Dawley rats [3]; Fat group, 1 h): no effect; Effect on standard chow intake, in words (Male Sprague-Dawley rats [3]; Fat group, 12 h): no effect; Effect on standard chow intake, in words (Male Sprague-Dawley rats [3]; Sugar group, 1 h): no effect; Effect on standard chow intake, in words (Male Sprague-Dawley rats [3]; Sugar group, 12 h): stimulated chow intake; Effect on intake of oil-containing palatable foods (rats; oil containing groups (Binge Fat, Binge Sugar/Fat)): reduces intake; Effect on binge eating of sugar (rats; sugar-binging rats): no effect
